Where “and” joins values, the source holds several entries; their conditions need not be identical. Equal values may be shown once.
Test system: CD2F1 mice, P1798 lymphosarcoma sc, tumor weight T/C
Experiment: NCI In Vivo Anticancer Drug Screen. Data for tumor model P1798 Lymphosarcoma (subcutaneous) in CD2F1 (CDF1) mice
Details: endpoint: mean tumor weight, higher = larger tumour
Protocol: The antitumor activity of compounds was measured in mice bearing transplantable tumors. Survival or tumor size were measured and the results are expressed as the measurement made in the treated group (T) divided by the measurement made in the vehicle treated control group (C). The tumor model used in this assay is P1798 Lymphosarcoma (subcutaneous) in CD2F1 (CDF1) mice

[1] = dose: 0.8 mg/kg/injection, schedule: Q01DX011 (ip), vehicle: carboxymethylcellulose (CMC)
[2] = dose: 5.0 mg/kg/injection, schedule: Q01DX010 (ip), vehicle: saline
[3] = dose: 10.0 mg/kg/injection, schedule: Q01DX010 (ip), vehicle: saline
[4] = dose: 20.0 mg/kg/injection, schedule: Q01DX010 (ip), vehicle: saline
[5] = dose: 40.0 mg/kg/injection, schedule: Q01DX010 (ip), vehicle: saline
[6] = dose: 250.0 mg/kg/injection, schedule: Q01DX010 (ip), vehicle: saline
[7] = dose: 12.5 mg/kg/injection, schedule: Q01DX005 (sc), vehicle: steriod suspending solution
[8] = dose: 12.5 mg/kg/injection, schedule: Q01DX010 (sc), vehicle: steriod suspending solution
[9] = dose: 25.0 mg/kg/injection, schedule: Q01DX005 (sc), vehicle: steriod suspending solution
[10] = dose: 50.0 mg/kg/injection, schedule: Q01DX005 (sc), vehicle: steriod suspending solution
[11] = dose: 50.0 mg/kg/injection, schedule: Q03DX004 (sc), vehicle: steriod suspending solution
[12] = dose: 100.0 mg/kg/injection, schedule: Q01DX005 (sc), vehicle: steriod suspending solution
[13] = dose: 100.0 mg/kg/injection, schedule: Q02DX010 (sc), vehicle: steriod suspending solution
[14] = dose: 100.0 mg/kg/injection, schedule: Q03DX004 (sc), vehicle: steriod suspending solution
[15] = dose: 25.0 mg/kg/injection, schedule: Q01DX010 (ip), vehicle: saline
[16] = dose: 50.0 mg/kg/injection, schedule: Q01DX010 (ip), vehicle: saline
[17] = dose: 100.0 mg/kg/injection, schedule: Q01DX010 (ip), vehicle: saline
[18] = dose: 60.0 mg/kg/injection, schedule: Q01DX010 (ip), vehicle: saline
[19] = dose: 18.0 mg/kg/injection, schedule: Q01DX010 (ip), vehicle: saline

## CC(=O)OC(C)(C)/C=C/C(=O)[C@](C)(O)[C@H]1[C@H](O)C[C@@]2(C)[C@@H]3CC=C4[C@@H](C=C(O)C(=O)C4(C)C)[C@]3(C)C(=O)C[C@]12C
dose: 0.15 mg/kg/injection, schedule: Q01DX009 (ip), vehicle: saline with Tween-80
  T/C: 100 % of control
dose: 0.3 mg/kg/injection, schedule: Q01DX009 (ip), vehicle: saline with Tween-80
  T/C: 84 % of control
dose: 0.4 mg/kg/injection, schedule: Q01DX011 (ip), vehicle: carboxymethylcellulose (CMC)
  T/C: 84 % of control
dose: 0.6 mg/kg/injection, schedule: Q01DX009 (ip), vehicle: saline with Tween-80
  T/C: 92 % of control
[1]
  T/C: 95 % of control
dose: 1.6 mg/kg/injection, schedule: Q01DX011 (ip), vehicle: carboxymethylcellulose (CMC)
  T/C: 115 % of control
dose: 3.2 mg/kg/injection, schedule: Q01DX011 (ip), vehicle: carboxymethylcellulose (CMC)
  T/C: 47 % of control

## C[C@@H]1C[C@@H]([C@H](O)CC2CC(=O)NC(=O)C2)C(=O)[C@@H](C)C1
[2]
  T/C: 80 % of control and 81 % of control
[3]
  T/C: 99 % of control and 103 % of control
[4]
  T/C: 63 % of control and 75 % of control
[5]
  T/C: 43 % of control and 60 % of control

## COc1ccc2c(c1OC)C(=O)O[C@@H]2[C@H]1c2c(cc3c(c2OC)OCO3)CCN1C
dose: 15.6 mg/kg/injection, schedule: Q01DX010 (ip), vehicle: saline
  T/C: 107 % of control
dose: 31.3 mg/kg/injection, schedule: Q01DX010 (ip), vehicle: saline
  T/C: 78 % of control
dose: 125.0 mg/kg/injection, schedule: Q01DX010 (ip), vehicle: saline
  T/C: 97 % of control
[6]
  T/C: 78 % of control

## CC(=O)OC(C)(C)/C=C/C(=O)[C@](C)(O)[C@H]1[C@H](O)C[C@@]2(C)[C@@H]3CC=C4[C@@H](C[C@H](O)C(=O)C4(C)C)[C@]3(C)C(=O)C[C@]12C
dose: 0.1 mg/kg/injection, schedule: Q01DX009 (ip), vehicle: saline
  T/C: 99 % of control
dose: 0.16 mg/kg/injection, schedule: Q01DX010 (ip), vehicle: saline
  T/C: 71 % of control
dose: 0.2 mg/kg/injection, schedule: Q01DX009 (ip), vehicle: saline
  T/C: 68 % of control
dose: 0.2 mg/kg/injection, schedule: Q01DX011 (ip), vehicle: carboxymethylcellulose (CMC)
  T/C: 106 % of control
dose: 0.25 mg/kg/injection, schedule: Q01DX010 (ip), vehicle: saline
  T/C: 70 % of control
dose: 0.3 mg/kg/injection, schedule: Q01DX011 (ip), vehicle: carboxymethylcellulose (CMC)
  T/C: 56 % of control
dose: 0.38 mg/kg/injection, schedule: Q01DX010 (ip), vehicle: saline
  T/C: 70 % of control
dose: 0.4 mg/kg/injection, schedule: Q01DX009 (ip), vehicle: saline
  T/C: 77 % of control
dose: 0.57 mg/kg/injection, schedule: Q01DX010 (ip), vehicle: saline
  T/C: 62 % of control
dose: 0.6 mg/kg/injection, schedule: Q01DX011 (ip), vehicle: carboxymethylcellulose (CMC)
  T/C: 82 % of control
[1]
  T/C: 11 % of control

## CC1C[C@@H]2[C@H]([C@@H](O)C[C@@]3(C)[C@H]2CC[C@]3(O)C(=O)CF)[C@@]2(C)CCC(=O)C=C12 (some centres not stated)
[7]
  T/C: 92 % of control
[8]
  T/C: 54 % of control and 60 % of control
[9]
  T/C: 47 % of control
dose: 25.0 mg/kg/injection, schedule: Q01DX010 (sc), vehicle: steriod suspending solution
  T/C: 57 % of control and 71 % of control
[10]
  T/C: 55 % of control
dose: 50.0 mg/kg/injection, schedule: Q01DX010 (sc), vehicle: steriod suspending solution
  T/C: 58 % of control and 65 % of control
[11]
  T/C: 66 % of control
dose: 75.0 mg/kg/injection, schedule: Q02DX010 (sc), vehicle: steriod suspending solution
  T/C: 100 % of control
[12]
  T/C: 14 % of control
[13]
  T/C: 93 % of control
[14]
  T/C: 61 % of control
dose: 150.0 mg/kg/injection, schedule: Q01DX010 (sc), vehicle: steriod suspending solution
  T/C: 118 % of control
dose: 150.0 mg/kg/injection, schedule: Q02DX010 (sc), vehicle: steriod suspending solution
  T/C: 95 % of control
dose: 200.0 mg/kg/injection, schedule: Q03DX004 (sc), vehicle: steriod suspending solution
  T/C: 25 % of control

## CC(=O)NCCSC(=O)C(=O)SCCNC(C)=O
[15]
  T/C: 111 % of control
[16]
  T/C: 104 % of control
[17]
  T/C: 110 % of control

## COc1cc2c3c(c4ccc(OC)c(OC)c4c2cc1OC)CN1CCC[C@@H]1C3
dose: 1.25 mg/kg/injection, schedule: Q01DX010 (ip), vehicle: saline
  T/C: 100 % of control and 78 % of control
[2]
  T/C: 108 % of control and 87 % of control
[3]
  T/C: 93 % of control and 104 % of control

## NCCCC(N)C(=O)NCCCCCCNCCCCCCNC(=O)C(N)CCCN (configuration not stated)
dose: 12.5 mg/kg/injection, schedule: Q01DX010 (ip), vehicle: saline
  T/C: 86 % of control
[15]
  T/C: 62 % of control
[16]
  T/C: 77 % of control
[17]
  T/C: 34 % of control

## C[C@]12CCC(=O)C=C1CC[C@H]1[C@@H]3CC[C@@]4(OCC4=O)[C@@]3(C)C[C@H](O)[C@@]12F
dose: 10.0 mg/kg/injection, schedule: Q01DX010 (sc), vehicle: steriod suspending solution
  T/C: 59 % of control
dose: 20.0 mg/kg/injection, schedule: Q01DX010 (sc), vehicle: steriod suspending solution
  T/C: 43 % of control
dose: 40.0 mg/kg/injection, schedule: Q01DX010 (sc), vehicle: steriod suspending solution
  T/C: 48 % of control
dose: 80.0 mg/kg/injection, schedule: Q01DX010 (sc), vehicle: steriod suspending solution
  T/C: 16 % of control
dose: 160.0 mg/kg/injection, schedule: Q01DX010 (sc), vehicle: steriod suspending solution
  T/C: 7 % of control
dose: 320.0 mg/kg/injection, schedule: Q01DX010 (sc), vehicle: steriod suspending solution
  T/C: 1 % of control

## CCOC(C)C(/C=N/NC(N)=S)=NNC(N)=S (configuration not stated)
dose: 30.0 mg/kg/injection, schedule: Q01DX010 (ip), vehicle: saline
  T/C: 99 % of control
[18]
  T/C: 100 % of control
dose: 120.0 mg/kg/injection, schedule: Q01DX010 (ip), vehicle: saline
  T/C: 93 % of control

## O=CN(O)CC(=O)O
dose: 62.5 mg/kg/injection, schedule: Q01DX010 (ip), vehicle: saline
  T/C: 92 % of control and 67 % of control
[6]
  T/C: 104 % of control and 108 % of control

## Nc1ccn(C2OC(CO)C(O)C2O)c(=O)n1 (configuration not stated)
[3]
  T/C: 12 % of control
[19]
  T/C: 31 % of control
[4]
  T/C: 10 % of control
dose: 27.0 mg/kg/injection, schedule: Q01DX010 (ip), vehicle: saline
  T/C: 12 % of control
[5]
  T/C: 4 % of control and 6 % of control
[18]
  T/C: 1 % of control

## NC(CCSCc1ccc(N(CCCl)CCCl)cc1)C(=O)O (configuration not stated)
dose: 4.5 mg/kg/injection, schedule: Q01DX010 (ip), vehicle: saline
  T/C: 108 % of control
dose: 9.0 mg/kg/injection, schedule: Q01DX010 (ip), vehicle: saline
  T/C: 86 % of control
[19]
  T/C: 98 % of control
dose: 36.0 mg/kg/injection, schedule: Q01DX010 (ip), vehicle: saline
  T/C: 93 % of control

## O=C1C=CC2(CCC23C=CC(=O)O3)O1 (configuration not stated)
dose: 13.0 mg/kg/injection, schedule: Q01DX011 (ip), vehicle: saline
  T/C: 74 % of control
dose: 20.0 mg/kg/injection, schedule: Q01DX011 (ip), vehicle: saline
  T/C: 106 % of control
dose: 45.0 mg/kg/injection, schedule: Q01DX011 (ip), vehicle: saline
  T/C: 108 % of control and 86 % of control
dose: 65.0 mg/kg/injection, schedule: Q01DX011 (ip), vehicle: saline
  T/C: 103 % of control
dose: 100.0 mg/kg/injection, schedule: Q01DX011 (ip), vehicle: saline
  T/C: 89 % of control

## C[C@]12C=CC(=O)C=C1CC[C@@H]1[C@@H]2[C@@H](O)C[C@@]2(C)[C@H]1CC[C@]2(O)C(=O)CO
[7]
  T/C: 41 % of control
[8]
  T/C: 42 % of control and 46 % of control
[9]
  T/C: 48 % of control
dose: 25.0 mg/kg/injection, schedule: Q02DX010 (sc), vehicle: steriod suspending solution
  T/C: 100 % of control
dose: 25.0 mg/kg/injection, schedule: Q03DX004 (sc), vehicle: steriod suspending solution
  T/C: 87 % of control
[10]
  T/C: 22 % of control
dose: 50.0 mg/kg/injection, schedule: Q02DX010 (sc), vehicle: steriod suspending solution
  T/C: 100 % of control
[11]
  T/C: 92 % of control
[12]
  T/C: 20 % of control
[13]
  T/C: 96 % of control
[14]
  T/C: 100 % of control
